{"source": "patent US20140187638A1", "about": "“PHENYLBUTYRATE IN RECTAL FORM FOR THE TREATMENT OF A MOTOR NEURON DISEASE OR A METABOLIC DISEASE” (GMP-ORPHAN, priority 2011, published 2014)", "key": {"juvenile minipigs": {"test_system": "juvenile minipigs", "test": "13-week repeat-dose toxicity study, rectal administration", "type": "in vivo", "conditions": "13 weeks, 5 doses per day, 550 to 13,750 mg/kg", "experimental": "The aim of this study was to test the toxicity of repeated administrations of sodium phenylbutyrate (NaPB) by the intended human route in juvenile minipigs (13-week study, total dose divided into 5 doses per day). Minipig is a model of interest for studies of local tolerance due to similarities between properties of the skin of pigs of the one of humans.\nA 13-week repeat-dose toxicity study was conducted in juvenile minipigs using the rectal administration route of sodium phenylbutyrate (NaPB). One group was treated […] at the pharmacological dose of NaPB. One group received oral NaPB (total dose divided into 5 doses per day) for comparison.\nThe study included safety pharmacology evaluation, toxicokinetic (TK) determination, as well as a four-week recovery period.\nEarliest dosing was started at 7 days of age. Oral gavage (5 times daily at 3-4 hour intervals) and rectal administration (5 times daily at 3-4 hour intervals) were performed during 13 weeks. A recovery period of 28 days was performed.\nThe recovery animals were housed for additional 28 days after dosing. The piglets were weighed twice weekly throughout the study. Growth measurements were performed twice weekly. Ophthalmology, electrocardiography were done the last day of treatment. […] The parameters measured met standard guidelines. […]"}, "[1]": {"conditions": "after per os ingestion; cited from earlier work"}, "[2]": {"test_system": "patients with SMA type II", "conditions": "oral, 9 weeks, cited from earlier work"}, "patients with SMA": {"test_system": "patients with SMA", "conditions": "oral, 500 mg/kg/day, intermittent regimen, 13 weeks, 107 patients; cited from earlier work"}, "SMA": {"test_system": "SMA", "conditions": "in vivo; cited from earlier work"}}, "data": [{"smiles": "O=C([O-])CCCc1ccccc1.[Na+]", "note": "[4-phenylbutyrate, sodium 4-phenylbutyrate]", "values": [{"measurement": "toxicity", "setting": "juvenile minipigs", "result": "No toxicity was observed"}, {"measurement": "half-life", "setting": "[1]", "result": 46.2, "unit": "min"}, {"measurement": "scores on a motor scale", "setting": "[2]; 500 mg/kg/day in five doses, 7 days on and 7 days off, 10 patients", "result": "significant increase"}, {"measurement": "side effects", "setting": "[2]; 500 mg/kg/day", "result": "no major side effect"}, {"measurement": "efficacy", "setting": "patients with SMA", "result": "not shown to be effective"}, {"measurement": "tolerability", "setting": "patients with SMA", "result": "well tolerated"}]}, {"smiles": "CCCC(CCC)C(=O)O", "note": "[Valproic acid, valproic acid]", "values": [{"measurement": "efficacy", "setting": "SMA", "result": "do not seem to have given significant results"}]}, {"smiles": "NC(=O)NO", "note": "[hydroxyurea]", "values": [{"measurement": "efficacy", "setting": "SMA", "result": "do not seem to have given significant results"}]}]}
